The values below come from patent publication US7524840B2, “7,8-disubstituted pyrazolobenzodiazepines” (Hoffmann-La Roche Inc., priority 2004, dated 2009).

As usually defined, the melting point is the temperature of the solid-liquid transition. What is called IC50 is the concentration at which inhibition is half-maximal.

The subject of one data set is HCT-116. As to the kind of experiment: HCT-116 (colon) cell-based MTT proliferation assay. To be noted: Homo sapiens, HCT-116, 96 h, 4 days post addition of test compound, read-out: Antiproliferative Activity HCT 116 (colon) Assay IC50. On the procedure: The estrogen receptor negative epithelial breast carcinoma line (MDA-MB-435) was purchased from American Type Cell Culture Collection (ATCC; Rockville, Md.) and was grown in the medium recommended by ATCC. For analysis of the effect of the test compounds on growth of these cells, the cells were plated at 2000 cells per well in a 96-well tissue culture plate, and were incubated overnight at 37° C. with 5% CO2. The next day, the test compounds were dissolved in 100% dimethyl sulfoxide (DMSO) to yield a 10 mM stock solution. Each compound was diluted with sterile medium to 1 mM in a sufficient quantity to yield a final concentration of 120 μM. The compounds were then serially diluted in medium with 1.2% DMSO. One-fourth final volume of the diluted compounds was transferred to 96 well plates. Test compounds were assayed in duplicate. DMSO was added to a row of “control cells” such that the final concentration of DMSO in each well was 0.3%. Wells to which no cells were added served as the “blank.” Wells to which no inhibitor was added served as “no inhibitor control”. The plates were returned to the incubator, and 5 days post addition of test compound, were analyzed as described below.
3-(4,5-Dimethylthiazole-2-yl)-2,5-diphenyl-2H-tetrazolium bromide (thiazolyl blue; MTT) was added to each well to yield a final concentration of 1 mg/mL. The plates were then incubated at 37° C. for 3 hours. The plates were centrifuged at 1000 rpm for 5 minutes prior to aspiration of the MTT-containing medium. The MTT-containing medium was then removed and 100 μL 100% ethanol was added to each well to dissolve the resulting formazan metabolite. To ensure complete dissolution, plates were shaken for 15 minutes at room temperature. Absorbencies were read in a microtiter plate reader (Molecular Dynamics) at a wavelength of 570 nm with a 650 nm reference. Percent inhibition was calculated by subtracting the absorbance of the blank (no cell) wells from all wells, then subtracting the division of the average absorbance of each test duplicate by the average of the controls from 1.00. Inhibitory concentrations (IC50) were determined from the linear regression of a plot of the logarithm of the concentration versus the percent inhibition.
The colon adenocarcinoma line SW480 and the colon carcinoma line HCT-116 also were obtained from the ATCC and were tested according to the same protocol provided above for MDA-MB-435 cell based assay with the following modifications. Cell line SW480 was plated at 1000 cells per well and analyzed at 6 days post addition of the test compound. Cell line HCT-116 was plated at 1000 cells per well and analyzed at 4 days post addition of test compound.

Another data set deals with T1, Cyclin E/CDK2 (Homo sapiens, UniProt P24941).
T1 construct: made in house; host or cells: insect cells
As to the kind of experiment: CDK2 Flash Plate Assay (Rb phosphorylation, 33P-ATP). The class given is biochemical. On the procedure:
To determine inhibition of CDK2 activity, purified recombinant retinoblastoma (Rb) protein was coated on 96 well FlashPlates (New England Nuclear, Boston, Mass.). […] Recombinant active human Cyclin E/CDK2 complexes were partially purified from extracts of insect cells. […] Plates were incubated for 25 minutes at room temperature with shaking, then washed and counted in the Topcount scintillation counter (Packard Instrument Co., Downers Grove, Ill.). Dilutions of test compounds were tested in duplicate in each assay. The percent inhibition of Rb phosphorylation, which is a measure of the inhibition of CDK2 activity, was determined according to the following formula:
[formula] where “test compound” refers to the average counts per minute of the test duplicates, “nonspecific” refers to the average counts per minute when no Cyclin E/CDK2 was added, and “total” refers to the average counts per minute when no compound was added.

The next data set addresses T2, FGFR.
T2 construct: fused on or other part: GST tag
As to the kind of experiment: FGFR kinase HTRF assay. To be noted: 1.5 nM activated FGFR, 10 μM ATP; read-out: Inhibition of FGFR IC50. The class given is biochemical. On the procedure: (§1) To determine inhibition of KDR and FGFR, kinase assays were conducted using an HTRF (Homogeneous Time Resolved Fluorescence) assay. This assay is described in A. J. Kolb et. al., Drug Discovery Today, 1998, 3(7), p 333.
FGFR activity assays were carried out as described above for the KDR activity assay with the following differences. GST-tagged FGFR enzyme was activated at room temperature for 1 hour in the following activation buffer: 100 mM HEPES, pH 7.4, 50 mM NaCl, 20 mM MgCl2, and 4 mM ATP. […] The rest of the assay was performed in the same manner as KDR assay.
(§2) Compound IC50 values were determined from duplicate sets of data, and calculated by using Excel and fitting data to equation Y=[(a−b)/{1+(X/c)^d]+b, where a and b are enzyme activity in the presence of no test inhibitor compound and an infinite amount of inhibitor test compound, respectively, c is the IC50 and d is the hill constant of the compound response. The IC50 value is the concentration of test compound that reduces by 50% the enzyme activity under the test conditions described.
In general terms: TR-FRET usually uses a lanthanide donor and a delayed reading to cut background.

In another data set the test system is VEGF-stimulated HUVEC. As to the kind of experiment: VEGF-stimulated HUVEC proliferation assay (BrdU). It is filed as cell-based. As to conditions: Homo sapiens, BrdU labeling, VEGF 20 ng per mL, 24 hour exposure, read-out: Antiproliferative Activity VEGF-stimulated HUVEC Assay IC50. The procedure: (§3) The antiproliferative activity of test compounds of this invention in cell-based assays was evaluated by BrdU assay using the BrdU kit (Roche Biochemicals 1-647-229). Human umbilical vein endothelial cells (HUVEC, Clonetics CC-2519) were cultured in EGM-2 (Clonetics CC-3162) medium and seeded at 10000 cells per well in a volume of 200 μL of EGM-2 (Clonetics CC-3162) media in a 96-well flat bottom plates (Costar 3595) overnight. After 24 hours of growth at 37° C. with 5% CO2, the incubation media was removed slowly by aspiration, and the content of each well was washed with 300 μL pre-warmed EBM-2 (Clonetics CC-3156) containing 50 μg per mL of gentamycin and 50 ng per mL of amphotercin-B (Clonetics CC-4083). Subsequently, the remaining media was again aspirated and replaced with 160 μL per well of serum starvation media (EBM-2 supplemented with 1% heat inactivated FBS (Clonetics CC-4102), 50 μg per mL gentamycin and 50 ng per mL of amphotercin-B (Clonetics CC-4083), 10 units per mL of Wyeth-Ayerst heparin (NDC0641-0391-25), and 2 mM L-glutamine (GIBCO 25030-081). After serum starving the cells for 24 hours, 20 μL of test compound at 10× test concentration in serum starvation medium with 2.5% DMSO was added to the appropriate wells. The control wells contained 20 μL of serum starvation medium with 2.5% DMSO. Plates were returned to the incubator for 2 hours. After pre-incubating the cells with the test compounds for 2 hours, 20 μL of growth factors at 10X assay concentration diluted in serum starvation media, FGF at 50 ng per mL, or VEGF (R&D systems 293-VE) at 200 ng per mL were added. The final concentration of FGF in the assay was 5 ng per mL and the final concentration of VEGF in the assays was 20 ng per mL. The growth factor free control wells had 20 μL per well of serum starvation media with the same amount of BSA as the wells with growth factors. The plates were returned to the incubator for an additional 22 hours.
(§4) After 24 hour exposure to the test compounds, the cells were labeled with BrdU (Roche Biochemicals 1-647-229), by adding 20 μL per well of BrdU labeling reagent that has been diluted (1:100) in serum starvation medium. The plates were then returned to the incubator for 4 hours. The labeling medium was removed by draining the medium onto paper towels. […] The plates were read at 450 nm with reference wavelength of 650 nm. The percent inhibition for each test compound was calculated by subtracting the absorbency of the blank (no cells) wells from all wells, then subtracting the division of the average absorbency of each test duplicate by the average of the controls from 1. […] The IC50 is determined from the linear regression of a plot of the logarithm of the concentration versus percent inhibition.
On the technique in general: Uptake of a labelled nucleoside into DNA is a usual measure of proliferation.

For a further data set, the target named is T3, KDR (Homo sapiens, UniProt P35968).
T3 construct: EEE tag
T3 sequence (P35968 20-1356, species assumed): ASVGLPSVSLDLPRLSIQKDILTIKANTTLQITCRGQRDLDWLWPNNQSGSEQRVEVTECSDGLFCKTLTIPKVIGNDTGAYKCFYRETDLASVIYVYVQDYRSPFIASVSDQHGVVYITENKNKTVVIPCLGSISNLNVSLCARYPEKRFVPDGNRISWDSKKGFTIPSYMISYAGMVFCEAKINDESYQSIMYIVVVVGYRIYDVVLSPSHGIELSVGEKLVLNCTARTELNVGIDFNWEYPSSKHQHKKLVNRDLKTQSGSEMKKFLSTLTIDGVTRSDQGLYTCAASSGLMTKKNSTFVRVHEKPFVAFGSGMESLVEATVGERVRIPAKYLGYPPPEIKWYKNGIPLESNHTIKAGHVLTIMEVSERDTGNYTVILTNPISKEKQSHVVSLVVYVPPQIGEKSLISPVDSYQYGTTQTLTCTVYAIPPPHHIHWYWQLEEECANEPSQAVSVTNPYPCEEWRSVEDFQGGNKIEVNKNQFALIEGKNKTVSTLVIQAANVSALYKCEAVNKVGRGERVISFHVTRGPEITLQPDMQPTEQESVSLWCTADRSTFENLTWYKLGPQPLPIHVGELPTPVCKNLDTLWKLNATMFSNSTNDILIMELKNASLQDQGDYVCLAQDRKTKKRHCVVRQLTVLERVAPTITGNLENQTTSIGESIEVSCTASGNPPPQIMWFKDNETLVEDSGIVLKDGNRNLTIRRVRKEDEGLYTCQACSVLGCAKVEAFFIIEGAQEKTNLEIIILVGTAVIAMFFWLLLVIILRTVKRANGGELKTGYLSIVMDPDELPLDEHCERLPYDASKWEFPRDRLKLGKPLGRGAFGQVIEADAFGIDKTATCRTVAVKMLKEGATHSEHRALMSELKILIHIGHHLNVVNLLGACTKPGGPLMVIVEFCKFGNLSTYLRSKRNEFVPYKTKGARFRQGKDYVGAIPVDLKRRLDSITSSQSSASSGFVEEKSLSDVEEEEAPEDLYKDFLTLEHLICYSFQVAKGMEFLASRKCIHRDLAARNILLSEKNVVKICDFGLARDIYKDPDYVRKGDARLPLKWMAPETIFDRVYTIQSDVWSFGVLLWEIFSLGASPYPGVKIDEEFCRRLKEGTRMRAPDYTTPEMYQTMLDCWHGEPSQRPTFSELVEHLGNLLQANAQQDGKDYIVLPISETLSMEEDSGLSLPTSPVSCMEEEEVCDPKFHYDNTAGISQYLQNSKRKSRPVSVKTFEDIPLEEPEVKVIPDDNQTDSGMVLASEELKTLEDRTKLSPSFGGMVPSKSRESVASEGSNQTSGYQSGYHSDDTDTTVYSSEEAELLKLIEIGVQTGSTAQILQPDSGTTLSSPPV
As to the kind of experiment: KDR kinase HTRF assay. It is filed as biochemical. To be noted: 1 nM activated KDR, 0.3 mM ATP, 37° C. for 30 minutes; read-out: Inhibition of KDR IC50. The procedure: as §1
Prior to kinase reaction, recombinant EEE-tagged KDR was activated in the presence of activation buffer (50 mM HEPES, pH 7.4, 1 mM DTT, 10% glycerol, 150 mM NaCl, 0.1 mM EDTA, 26 mM MgCl2, and 4 mM ATP). The enzyme was incubated at 4° C. for 1 hour.
Kinase activity assays were performed in 96-well polypropylene plates (Falcon) with a total volume of 90 μL in each well. Each well contained 1 μM KDR substrate (Biotin-[…]), 1 nM activated KDR, and a test compound with one of 8 assay concentrations ranging from […] to […] (1:5 serial dilution). […] The reaction was incubated at 37° C. for 30 minutes. To stop the KDR reaction, 72 μL of reaction mixture was transferred into a STOP plate containing 18 μL of revelation buffer (20 mM EDTA, 50 mM HEPES, pH 7.4, 0.02% BSA, 10 nM Eu-labelled anti-pY antibody (final conc. 2 nM), and 100 nM streptavidin (final conc. 20 nM)). After mixing, 35 μL of solution was transferred into duplicate wells of a 384-well black plate (Costar), and read at 615/665 nm on a Wallac Victor 5 reader.
as §2

In the next data set the test system is FGF-stimulated HUVEC. The data set is described as follows: FGF-stimulated HUVEC proliferation assay (BrdU). To be noted: Homo sapiens, BrdU labeling, FGF 5 ng per mL, 24 hour exposure, read-out: Antiproliferative Activity FGF-stimulated HUVEC Assay IC50. The class given is cell-based. The procedure: as §3, §4

`COc1cc2c(cc1F)C(c1ccccc1Cl)=Nc1c[nH]nc1N2`: the melting point lay in the range of 242 to 243 °C.
As to `COCCOc1cc2c(cc1OC)C(c1ccccc1Cl)=Nc1c(n[nH]c1C)N2` [IVgg, 5-(2-chlorophenyl)-1,2-dihydro-7-methoxy-8-methoxyethoxy-3-methyl-pyrazolo[3,4-b][1,4]benzodiazepine], the IC50 with HCT-116 was determined as 0.197 µM.
Molecule `Cc1[nH]nc2c1N=C(c1ccccc1Cl)c1cc(F)c(OC(C)C)cc1N2` [IVh, 5-(2-chlorophenyl)-1,2-dihydro-7-fluoro-8-(1-methylethoxy)-3-methyl-pyrazolo[3,4-b][1,4]benzodiazepine] had a half-maximal inhibitory concentration (IC50) on Cyclin E/CDK2 of 0.247 µM.
On to `COc1cc2c(cc1C)C(c1ccccc1Cl)=Nc1c[nH]nc1N2`, for which the melting point was in the range of 275 to 276 °C.
`Cc1[nH]nc2c1N=C(c1ccccc1Cl)c1cc(C#N)c(OCCCN3CCOCC3)cc1N2` [IVk, 5-(2-chlorophenyl)-7-cyano-1,2-dihydro-8-(3-(4-morpholinyl)propoxy)-3-methyl-pyrazolo[3,4-b][1,4]benzodiazepine]: the IC50 on FGFR came to 0.033 µM.
Take `COc1cc2c(cc1C)C(c1ccccc1Cl)=Nc1c(n[nH]c1C)N2` [IVz, 5-(2-chlorophenyl)-1,2-dihydro-3,7-dimethyl-8-methoxy-pyrazolo[3,4-b][1,4]benzodiazepine]: in the data set on VEGF-stimulated HUVEC, the IC50 is 0.012 µM.
With `COCCOc1cc2c(cc1OC)Nc1n[nH]c(C)c1N=C2c1ccccc1Cl` [IVkk, 5-(2-chlorophenyl)-1,2-dihydro-8-methoxy-7-methoxyethoxy-3-methyl-pyrazolo[3,4-b][1,4]benzodiazepine], the IC50 amounted to 0.024 µM at KDR and 0.509 µM in the data set on HCT-116.
In turn, `COc1cc2c(cc1Br)C(c1ccccc1Cl)=Nc1c(n[nH]c1C)N2` showed a melting point of 210 to 211 °C.
In the case of `Cc1[nH]nc2c1N=C(c1ccccc1Cl)c1cc(F)c(OCCCN3CCOCC3)cc1N2` [IVi, 5-(2-chlorophenyl)-1,2-dihydro-7-fluoro-8-(3-(4-morpholinyl)propoxy)-3-methyl-pyrazolo[3,4-b][1,4]benzodiazepine], the IC50 at KDR was found to be 0.031 µM.
For the molecule `Cc1cc2c(cc1C)C(c1ccccc1Cl)=Nc1c(n[nH]c1C)N2` [IVw, 5-(2-chlorophenyl)-1,2-dihydro-3,7,8-trimethyl-pyrazolo[3,4-b][1,4]benzodiazepine], the results for the IC50 at FGFR, with VEGF-stimulated HUVEC and in the data set with FGF-stimulated HUVEC were 0.038 µM, 0.022 µM and 0.036 µM, respectively.
In the case of `COc1cc2c(cc1Cl)Nc1n[nH]c(C)c1N=C2c1ccccc1Cl` [IVy, 8-chloro-5-(2-chlorophenyl)-1,2-dihydro-7-methoxy-3-methyl-pyrazolo[3,4-b][1,4]benzodiazepine], the IC50 in the data set on VEGF-stimulated HUVEC was found to be 0.174 µM.
For the molecule `COc1cc2c(cc1C#N)C(c1ccccc1Cl)=Nc1c[nH]nc1N2`, the melting point is 288 to 290 °C.
In the case of `COc1cc2c(cc1C(N)=O)C(c1ccccc1Cl)=Nc1c(n[nH]c1C)N2` [IVc], the IC50 at FGFR was 0.032 µM; at KDR, 0.022 µM; in the data set on FGF-stimulated HUVEC it was below 0.001 µM.
